Here are results for 2 compounds from article PMC8047011, “Enantiomers of 2-methylglutamate and 2-methylglutamine selectively impact mouse brain metabolism and behavior” (Scientific Reports, 2021).

Data set [1] addresses T1, GABAB (B1/B2) (Homo sapiens, UniProt Q9UBS5).
T1 construct: purchased SB Drug Discovery (CNS discovery panel, FLIPR); Eurofins Discovery (Cerep)
Nature of the data set: Functional GABAB assay, Ca2+-dependent fluorimetry in RBL cells. The conditions noted are these: 100 μM, triplicate. Type of data set: cell-based.

In data set [2] the target is T1, GABAB (B1/B2). The experiment in a line: GABAB binding assay (B1/B2; nonsel). The conditions noted are these: triplicate, rat, read-out: % of radioligand binding inhibition, GABAB nonsel. As for the experimental part: (§1) mGluR1, mGluR2, mGluR5 and GABAB binding assays were performed by Eurofins Discovery. […]
mGluR5 and GABAB binding assays were performed using recombinant CHO-K1 cells and
(§2) [3H]CGP-54626 and [3H]quisqalic acid, respectively. All compounds were tested at a single
(§3) concentration of 100 uM in triplicate. […]

The next data set concerns the target T2, GABAA α4β2γ2 (Homo sapiens, UniProt P47870+P48169).
T2 construct: host or cells: HEK 293
The experiment in a line: FLIPR functional receptor assay, GABAA α4β2γ2. The following applies: agonist mode; top test concentration 1 mM. The format is cell-based. As for the experimental part: intensity and lower number of tone and shock (2x) pairings to create a greater opportunity to observe pharmacologic activity.
(§4) Receptor functional & binding assays
(§5) Functional assays of all GABAA, NMDA (GluN2A–GluN2D) and AMPA (GluA2) receptor subunits were performed by SB Drug Discovery as a part of their CNS discovery panel using FLIPR technology. Briefly, receptor-expressing HEK 293 cell lines were incubated in a red membrane potential dye in HEPES:HBSS pH 7.4 buffer and the fluorescence (λex: 488, λex: 510–570) was monitored over time as the test compounds and/or reference compounds were added to the solution. In agonist assay, only test compounds were added. In positive allosteric modulator assay, cells were preincubated with test compounds and then low concentration (approximately EC20) of an appropriate agonist was added. In antagonist assay, cells were preincubated with test compounds and then high concentration (approximately EC80) of an appropriate agonist was added. For GABAA assays, GABA was used as the agonist, picrotoxin was used as the reference antagonist and allopregnanolone was used as the reference positive allosteric modulator (PAM). […] All compounds were tested at 7 concentration points in triplicate and EC50/IC50 was determined where applicable. […]

Data set [3] has as its system primary murine cerebral astrocytes. Nature of the data set: Astrocyte transport and metabolism of 2MeGlu. Type of data set: cell-based, mouse. The conditions noted are these: 1 mM substrate, 2 h, 37 °C. As for the experimental part: Primary astrocytes from C57Bl/6 mouse brain were cultured in complete astrocyte growth medium at 37 °C at 5% CO2 on 96 well plates. Cells were exposed to 1 mM compound in 100 μL medium for 2 h at 37 °C. Supernatants were collected, centrifuged at 2500g for 10 min at 4 °C. 10 μL aliquots were diluted with 190 μL 60% ACN containing 10 μM Glu-d5 and Gln-d5. Cells were quickly washed with 250 μL cold PBS twice and suspended in 200 μL of 60% ACN containing 10 μM Glu-d5 and Gln-d5. All samples were shaken at 1000 rpm for 5 min and then stored at – 80 °C.

The target of a further data set is T3, GABAA α3β1γ2 (Homo sapiens, UniProt P18505+P34903).
T3 construct: host or cells: HEK 293
The experiment in a line: FLIPR functional receptor assay, GABAA α3β1γ2. The format is cell-based. The conditions noted are these: agonist mode; top test concentration 1 mM. As for the experimental part:
as §4
as §5, with “(PAM). For NMDA assays, a mixture of glutamate, glycine and CaCl2 was used as the agonist, MK801 was the reference antagonist and pregnenolone sulfate or GNE 9278 were used as reference PAMs.” for “(PAM).”

Another data set addresses T4, GABAA α4β1γ2 (Homo sapiens, UniProt P18505+P48169).
T4 construct: host or cells: HEK 293
The experiment in a line: FLIPR functional receptor assay, GABAA α4β1γ2. Type of data set: cell-based. The following applies: agonist mode; top test concentration 1 mM. As for the experimental part:
as §4
as §5, with “(PAM). For NMDA assays, a mixture of glutamate, glycine and CaCl2 was used as the agonist, MK801 was the reference antagonist and pregnenolone sulfate or GNE 9278 were used as reference PAMs.” for “(PAM).”

Another data set concerns the target T5, mGluR2 (Homo sapiens, UniProt Q14416).
T5 construct: purchased SB Drug Discovery (CNS discovery panel, FLIPR); Eurofins Discovery (Cerep)
The experiment in a line: mGluR2 radioligand binding assay. The conditions noted are these: triplicate. As for the experimental part: as §1, §2, §3

The target in a further data set is T6, GluN2A (Homo sapiens, UniProt Q12879).
T6 construct: host or cells: HEK 293
Nature of the data set: FLIPR functional receptor assay, GluN2A. Type of data set: cell-based. As for the experimental part:
as §4
as §5, with “(PAM). For NMDA assays, a mixture of glutamate, glycine and CaCl2 was used as the agonist, MK801 was the reference antagonist and pregnenolone sulfate or GNE 9278 were used as reference PAMs.” for “(PAM).”

SMILES strings stand for the structures. A value given as a limit tells only on which side of the number the result lay.

By inhibition is commonly meant the drop in the measured response relative to a control, in per cent. What is called EC50 is the concentration that produces a half-maximal response. A higher EC50 goes with lower potency in that assay. The term IC50 denotes the point on the concentration scale where inhibition reaches its midpoint. Low values mean inhibition by little substance, high ones a need for much substance.

T1 sequence (Q9UBS5 20-961): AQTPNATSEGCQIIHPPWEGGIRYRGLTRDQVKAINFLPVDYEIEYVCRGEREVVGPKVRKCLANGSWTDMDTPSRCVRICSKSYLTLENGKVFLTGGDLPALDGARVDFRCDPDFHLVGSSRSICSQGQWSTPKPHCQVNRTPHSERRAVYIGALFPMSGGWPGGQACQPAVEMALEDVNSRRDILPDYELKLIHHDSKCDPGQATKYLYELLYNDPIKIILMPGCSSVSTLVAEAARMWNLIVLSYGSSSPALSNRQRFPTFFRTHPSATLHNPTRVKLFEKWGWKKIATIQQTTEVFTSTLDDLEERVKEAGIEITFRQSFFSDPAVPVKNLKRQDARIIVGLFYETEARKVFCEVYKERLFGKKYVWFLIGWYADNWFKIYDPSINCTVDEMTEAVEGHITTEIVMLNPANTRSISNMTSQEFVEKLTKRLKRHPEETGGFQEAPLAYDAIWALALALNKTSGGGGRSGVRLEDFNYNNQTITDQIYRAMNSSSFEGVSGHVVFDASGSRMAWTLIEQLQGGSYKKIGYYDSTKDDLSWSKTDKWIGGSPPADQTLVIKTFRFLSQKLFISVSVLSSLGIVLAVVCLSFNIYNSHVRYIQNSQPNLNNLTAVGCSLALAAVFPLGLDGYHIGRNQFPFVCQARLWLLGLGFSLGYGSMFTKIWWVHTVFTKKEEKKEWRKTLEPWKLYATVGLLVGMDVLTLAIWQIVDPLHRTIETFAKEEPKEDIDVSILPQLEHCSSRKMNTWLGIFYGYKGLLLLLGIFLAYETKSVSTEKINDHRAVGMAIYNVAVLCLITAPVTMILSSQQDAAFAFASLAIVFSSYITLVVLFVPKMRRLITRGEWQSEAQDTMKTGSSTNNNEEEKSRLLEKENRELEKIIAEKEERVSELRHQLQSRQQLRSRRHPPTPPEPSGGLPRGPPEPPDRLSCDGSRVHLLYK
T1 sequence (O75899 42-941 partner): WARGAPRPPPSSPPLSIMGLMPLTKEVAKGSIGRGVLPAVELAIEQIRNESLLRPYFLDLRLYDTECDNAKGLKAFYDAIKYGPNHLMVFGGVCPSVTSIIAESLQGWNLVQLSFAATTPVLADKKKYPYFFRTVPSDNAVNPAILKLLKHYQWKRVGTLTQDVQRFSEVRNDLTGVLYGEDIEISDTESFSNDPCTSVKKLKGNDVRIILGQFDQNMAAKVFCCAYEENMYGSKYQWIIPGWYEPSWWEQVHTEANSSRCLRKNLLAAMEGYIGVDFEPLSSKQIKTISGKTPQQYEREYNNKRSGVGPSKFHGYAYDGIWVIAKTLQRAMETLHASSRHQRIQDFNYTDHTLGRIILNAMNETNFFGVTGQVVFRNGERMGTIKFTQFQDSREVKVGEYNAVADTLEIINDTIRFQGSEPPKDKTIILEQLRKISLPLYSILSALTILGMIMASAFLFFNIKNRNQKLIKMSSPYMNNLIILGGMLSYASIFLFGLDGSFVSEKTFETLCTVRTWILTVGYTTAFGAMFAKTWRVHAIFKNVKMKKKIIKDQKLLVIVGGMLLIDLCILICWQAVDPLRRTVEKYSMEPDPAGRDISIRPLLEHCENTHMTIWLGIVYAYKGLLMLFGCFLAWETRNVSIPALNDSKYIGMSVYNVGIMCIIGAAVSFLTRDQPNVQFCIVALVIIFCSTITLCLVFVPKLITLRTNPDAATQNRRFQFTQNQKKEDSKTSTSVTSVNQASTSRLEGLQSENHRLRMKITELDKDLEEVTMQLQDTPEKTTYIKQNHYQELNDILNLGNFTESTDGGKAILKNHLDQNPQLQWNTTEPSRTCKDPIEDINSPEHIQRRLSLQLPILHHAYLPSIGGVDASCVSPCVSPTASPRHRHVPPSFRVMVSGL
T4 sequence (P48169 36-554): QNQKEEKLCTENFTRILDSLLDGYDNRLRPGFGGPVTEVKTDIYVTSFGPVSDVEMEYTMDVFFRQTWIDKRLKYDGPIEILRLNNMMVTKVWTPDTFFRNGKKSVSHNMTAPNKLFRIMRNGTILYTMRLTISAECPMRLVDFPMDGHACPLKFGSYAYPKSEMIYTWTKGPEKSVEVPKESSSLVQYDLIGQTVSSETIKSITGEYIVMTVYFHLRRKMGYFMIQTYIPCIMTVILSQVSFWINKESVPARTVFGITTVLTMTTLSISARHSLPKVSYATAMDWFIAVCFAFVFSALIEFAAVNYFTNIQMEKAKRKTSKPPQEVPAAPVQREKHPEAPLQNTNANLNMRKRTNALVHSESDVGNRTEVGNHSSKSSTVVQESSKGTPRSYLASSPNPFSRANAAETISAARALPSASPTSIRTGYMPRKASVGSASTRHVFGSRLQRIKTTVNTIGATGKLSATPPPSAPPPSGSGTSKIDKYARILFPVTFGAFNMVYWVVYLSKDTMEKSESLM
T4 sequence (P18505 26-474): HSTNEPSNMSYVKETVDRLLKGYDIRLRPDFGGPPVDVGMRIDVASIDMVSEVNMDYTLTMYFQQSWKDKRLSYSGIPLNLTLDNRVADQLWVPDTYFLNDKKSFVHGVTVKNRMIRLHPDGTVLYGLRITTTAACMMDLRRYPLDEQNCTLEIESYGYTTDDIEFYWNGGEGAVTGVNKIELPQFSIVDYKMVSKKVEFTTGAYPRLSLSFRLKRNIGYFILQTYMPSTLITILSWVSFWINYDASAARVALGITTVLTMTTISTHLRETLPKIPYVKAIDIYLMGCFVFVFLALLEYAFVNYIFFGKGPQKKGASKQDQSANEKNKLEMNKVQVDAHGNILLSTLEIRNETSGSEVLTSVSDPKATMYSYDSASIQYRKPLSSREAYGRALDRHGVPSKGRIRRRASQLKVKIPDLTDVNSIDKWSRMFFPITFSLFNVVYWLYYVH
T4 sequence (P18507 40-475 partner): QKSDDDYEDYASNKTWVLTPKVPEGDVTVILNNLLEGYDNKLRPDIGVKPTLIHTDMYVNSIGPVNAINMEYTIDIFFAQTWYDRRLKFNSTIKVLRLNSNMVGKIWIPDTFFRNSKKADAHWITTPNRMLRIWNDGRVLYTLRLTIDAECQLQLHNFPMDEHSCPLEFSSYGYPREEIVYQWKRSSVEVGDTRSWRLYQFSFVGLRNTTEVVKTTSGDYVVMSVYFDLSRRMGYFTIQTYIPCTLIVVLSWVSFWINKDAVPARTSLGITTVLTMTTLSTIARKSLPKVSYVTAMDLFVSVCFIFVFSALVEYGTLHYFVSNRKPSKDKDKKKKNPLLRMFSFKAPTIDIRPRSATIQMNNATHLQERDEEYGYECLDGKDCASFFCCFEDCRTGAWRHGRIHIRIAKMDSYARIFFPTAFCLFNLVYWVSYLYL
T2 sequence (P48169 36-554): as the sequence (P48169 36-554) above
T2 sequence (P47870 25-512 limits assumed): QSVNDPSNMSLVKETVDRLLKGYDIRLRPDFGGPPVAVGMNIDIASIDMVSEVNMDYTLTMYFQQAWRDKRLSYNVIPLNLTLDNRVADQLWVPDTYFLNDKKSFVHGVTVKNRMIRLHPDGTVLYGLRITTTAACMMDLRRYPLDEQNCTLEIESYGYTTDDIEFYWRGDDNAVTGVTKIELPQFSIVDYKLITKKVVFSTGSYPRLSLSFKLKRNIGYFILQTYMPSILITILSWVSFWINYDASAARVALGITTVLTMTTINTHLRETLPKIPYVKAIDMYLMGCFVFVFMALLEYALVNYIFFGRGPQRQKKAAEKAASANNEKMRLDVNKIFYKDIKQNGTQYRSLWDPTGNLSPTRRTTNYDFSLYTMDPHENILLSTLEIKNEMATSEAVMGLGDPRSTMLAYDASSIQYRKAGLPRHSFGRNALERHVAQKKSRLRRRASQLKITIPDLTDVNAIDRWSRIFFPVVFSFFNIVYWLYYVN
T2 sequence (P18507 40-475 partner): as the sequence (P18507 40-475 partner) above
T5 sequence (Q14416 19-872): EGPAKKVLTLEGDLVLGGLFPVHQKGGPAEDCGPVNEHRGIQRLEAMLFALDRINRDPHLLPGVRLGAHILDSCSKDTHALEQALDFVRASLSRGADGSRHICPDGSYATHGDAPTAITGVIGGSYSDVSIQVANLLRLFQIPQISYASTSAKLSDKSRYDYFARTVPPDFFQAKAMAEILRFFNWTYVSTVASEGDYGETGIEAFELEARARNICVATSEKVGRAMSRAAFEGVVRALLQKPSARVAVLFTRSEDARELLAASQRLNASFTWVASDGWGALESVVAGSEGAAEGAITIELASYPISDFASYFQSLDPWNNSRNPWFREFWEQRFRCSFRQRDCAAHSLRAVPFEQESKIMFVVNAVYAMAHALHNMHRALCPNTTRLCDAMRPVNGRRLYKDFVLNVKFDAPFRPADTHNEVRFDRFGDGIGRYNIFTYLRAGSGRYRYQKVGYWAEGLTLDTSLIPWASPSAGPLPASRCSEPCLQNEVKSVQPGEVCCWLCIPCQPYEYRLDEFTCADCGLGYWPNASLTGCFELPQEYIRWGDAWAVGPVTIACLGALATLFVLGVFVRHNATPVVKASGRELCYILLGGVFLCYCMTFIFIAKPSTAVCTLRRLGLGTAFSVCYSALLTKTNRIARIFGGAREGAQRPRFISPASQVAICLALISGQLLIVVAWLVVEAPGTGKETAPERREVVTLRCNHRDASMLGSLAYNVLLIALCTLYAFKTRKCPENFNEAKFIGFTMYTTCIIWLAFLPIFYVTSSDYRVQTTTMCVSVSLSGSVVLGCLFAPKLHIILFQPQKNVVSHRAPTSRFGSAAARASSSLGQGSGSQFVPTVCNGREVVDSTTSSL

For the compound `C[C@](N)(CCC(=O)O)C(=O)O` [(S)-2MeGlu, (S)-2-methylglutamic acid], the “% of agonist response, GABAB (B1/B2)” value on GABAB (B1/B2) [1] is 0%. Besides, the inhibition at 100 µM on GABAB (B1/B2) [2] worked out at 5%; on mGluR2 it was 25%. The EC50 is above 1000 µM on GABAA α4β2γ2, 782 µM on GABAA α3β1γ2 and 704 µM on GABAA α4β1γ2. In addition, in data set [3], the “Astrocyte uptake and conversion to 2MeGln” value was “transported into astrocytes and then converted into 2MeGln”.

Take `C[C@@](N)(CCC(=O)O)C(=O)O` [(R)-2MeGlu, (R)-2-methylglutamic acid]: on GABAB (B1/B2) [1], the “% of agonist response, GABAB (B1/B2)” value amounted to 0%. For the same compound, the inhibition at 100 µM at GABAB (B1/B2) [2] was 5%; at mGluR2 it was -3%. For the same compound, the values for the concentration for a half-maximal effect (EC50) on GABAA α4β2γ2, at GABAA α3β1γ2 and on GABAA α4β1γ2 were above 1000 µM, 742 µM and 870 µM, respectively. The “Activity against GluN2A (in words)” value at GluN2A is “weak antagonist behavior”. Further, at GluN2A (antagonist mode, top test concentration 100 μM), the IC50 came to 69 µM. Further, in data set [3], the “Astrocyte uptake and conversion to 2MeGln” value is “not detected within astrocytes in significant amounts, and no conversion to 2MeGln was detected”.
